Measured values: article PMC3419191, “Identification of Novel Piperazinylquinoxaline Derivatives as Potent Phosphoinositide 3-Kinase (PI3K) Inhibitors” (PLoS ONE, 2012)

Assays:
PC3 = assay: MTT assay, antiproliferative activity against PC3 cells; assay type: cell-based; details: Homo sapiens, PC-3, 72 h, mean of at least two determinations
Method in brief: (§1)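 Cells grown in RPMI-1640 with 10% FBS at 37°C, 5% CO2, plated 24 h, then exposed to graded compound concentrations for 72 h. Viability read by MTT absorbance; IC50 is the concentration giving 50% absorbance inhibition versus untreated control.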

A549 = assay: MTT assay, antiproliferative activity against A549 cells; assay type: cell-based; details: Homo sapiens, 72 h, mean of at least two determinations
Method in brief: as §1

HCT116 = assay: MTT assay, antiproliferative activity against HCT116 cells; assay type: cell-based; details: Homo sapiens, HCT-116, 72 h, mean of at least two determinations
Method in brief: as §1

recombinant human PI3Kα = target: T1, recombinant human PI3Kα (Homo sapiens, UniProt P42336); assay: Competitive fluorescence polarization (FP) assay, inhibition of PI3Kα; assay type: biochemical
T1 construct: purchased Echelon Biosciences (Salt Lake City, UT, USA) E-2000
Protocol: Selected compounds were then tested for their enzymatic inhibitory activity against PI3Kα using a competitive fluorescence polarization (FP) assay to determine the molecular target of synthesized compounds [21].
The PI3Kα inhibitory test was determined using a competitive fluorescence polarization kinase activity assay. PI3K fluorescence polarization assay kit (catalog No. K-1100) and recombinant human PI3Kα (catalog No. E-2000) were purchased from Echelon Biosciences (Salt Lake City, UT, USA). PI3K reactions were performed in 5 mM HEPES, Ph 7, 2.5 mM MgCl2, 10 mM DTT and 50 µM ATP, using diC8-phosphatidylinositol-4, 5-bisphosphate (PIP2) as the substrate, and the final reaction volumes were 10 µL. For evaluation of the PI3Kα inhibitory activity of target compounds, 50 ng enzyme and 10 µM substate were used per 10 µL reaction volume with the concentrations of inhibitors ranging from 3.2 nM to 10 µM. After incubating for 3 h at room temperature, reactions were quenched by adding chelators. A mixture of phosphoinositide binding protein was added and mixed, followed by the addition of a fluorophore-labeled phosphoinositide tracer. Samples were then mixed in 384-well black Corning nonbinding plates (Corning, NY, USA) and incubated in a dark environment for 1 h to equilibrate. Finally, polarization values were measure using red fluorophores with appropriate filters to determine the extent of enzyme activity in the reaction.

PC3 cells [1] = assay: Apoptosis assay in PC3 cells by flow cytometry (PI); assay type: cell-based, human; details: 24 h, control 1.71%
Protocol: Piperazinylquinoxaline derivative 41 was further tested for its ability to induce apoptosis in PC3 cells. […] (Fig. 5). With an apoptotic percent of 1.71% of the control, the percent of apoptotic PC3 cells induced by compound 41 and GDC0941 in 5 µM after treatment of 24 h were 4.48% and 3.12%, respectively.
Figure 5 Apoptosis induction of compound 41 and GDC0941 in PC3 cells. After treatment with 41 and GDC0941 (5 or 10 µM) for 24 h, PC3 cells were harvested and detected of apoptosis by flow cytometry using PI apoptosis detection kit. Vertical axes stand for the counts of relative number of PC3 cells; horizontal axes stand for the relative fluorescence light intensity measured as pulse-area (FL2-A). TEXT PRINTED IN THE PICTURE: Compound 41: Apo:4.48% (5μM); Apo:32.83% (10μM) | GDC0941: Apo:3.12% (5μM); Apo:5.65% (10μM)
(§2) For flow cytometry analysis, PC3 cells were treated with DMSO, compound 41 and GDC0941 for 24 h. Cells were washed twice with PBS and fixed in 75% ethanol at −20°C. The cell pellet was resuspended in 100 µL of PBS containing […] RNase (Amerson, Solon, OH, USA), then incubated at 37°C for 0.5 h. After incubation, the cells were stained with 20 mL/L propidium iodide (PI, Sigma, St. Louis, MO, USA) at 4°C for 15 min. The fluorescence of cell was measured with FACSCalibur flow cytometer (Becton-Dickinson, Lincoln Park, NJ, USA).

PC3 cells [2] = assay: Cell cycle arrest in PC3 cells by flow cytometry; assay type: cell-based, human; details: 24 h; for cell cycle arrest: 2 and 4 µM
Protocol: Moreover, flow cytometric analysis was performed to determine whether target compounds could induce cell cycle arrest in PC3 cells. GDC0941 was used as the positive control. PC3 cells were treated with compound 41 and GDC0941 in two different concentrations (2 and 4 µM) for 24 h, the results are presented as Figure 6.
Figure 6 Cell cycle arrest test of compound 41 and GDC0941 in PC3 cells. Vertical axes stand for the counts of relative number of PC3 cells; horizontal axes stand for the relative fluorescence light intensity measured as pulse-area (FL2-A). TEXT PRINTED IN THE PICTURE: Compound 41: G1: 53.77 % (2μM); G2: 16.76 % (2μM); S: 29.48 % (2μM); G1: 54.38 % (4μM); G2: 15.87 % (4μM); S: 29.75 % (4μM) | GDC0941: G1: 63.66 % (2μM); G2: 21.86 % (2μM); S: 14.48 % (2μM); G1: 71.43 % (4μM); G2: 19.92 % (4μM); S: 8.65 % (4μM)
as §2

T1 sequence (P42336 whole entry): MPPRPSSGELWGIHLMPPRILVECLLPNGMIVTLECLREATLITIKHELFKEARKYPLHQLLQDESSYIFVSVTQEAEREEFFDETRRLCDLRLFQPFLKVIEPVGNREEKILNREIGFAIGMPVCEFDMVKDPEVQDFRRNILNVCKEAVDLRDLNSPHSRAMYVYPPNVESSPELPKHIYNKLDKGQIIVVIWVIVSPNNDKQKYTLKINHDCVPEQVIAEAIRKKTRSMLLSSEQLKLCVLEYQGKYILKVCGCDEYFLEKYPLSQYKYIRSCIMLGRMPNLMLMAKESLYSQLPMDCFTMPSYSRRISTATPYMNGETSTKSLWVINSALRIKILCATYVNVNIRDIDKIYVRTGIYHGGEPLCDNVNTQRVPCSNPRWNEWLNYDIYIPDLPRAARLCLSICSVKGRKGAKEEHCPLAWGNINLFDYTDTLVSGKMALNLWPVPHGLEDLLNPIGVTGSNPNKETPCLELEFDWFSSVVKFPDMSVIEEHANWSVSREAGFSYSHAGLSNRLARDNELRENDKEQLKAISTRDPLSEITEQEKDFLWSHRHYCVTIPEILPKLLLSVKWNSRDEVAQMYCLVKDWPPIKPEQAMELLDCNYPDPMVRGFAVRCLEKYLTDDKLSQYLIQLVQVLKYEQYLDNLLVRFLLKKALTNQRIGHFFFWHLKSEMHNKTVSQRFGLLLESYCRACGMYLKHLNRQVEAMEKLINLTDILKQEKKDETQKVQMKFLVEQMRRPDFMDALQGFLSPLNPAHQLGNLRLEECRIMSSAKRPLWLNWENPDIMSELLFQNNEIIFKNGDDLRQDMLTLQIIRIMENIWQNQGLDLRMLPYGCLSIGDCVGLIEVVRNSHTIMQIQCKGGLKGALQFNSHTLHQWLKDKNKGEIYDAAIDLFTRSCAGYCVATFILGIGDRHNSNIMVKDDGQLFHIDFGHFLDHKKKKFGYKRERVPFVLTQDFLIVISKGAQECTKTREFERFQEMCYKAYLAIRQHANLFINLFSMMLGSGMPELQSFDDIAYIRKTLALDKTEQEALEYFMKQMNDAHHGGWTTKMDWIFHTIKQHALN
T1 sequence (P27986 whole entry partner): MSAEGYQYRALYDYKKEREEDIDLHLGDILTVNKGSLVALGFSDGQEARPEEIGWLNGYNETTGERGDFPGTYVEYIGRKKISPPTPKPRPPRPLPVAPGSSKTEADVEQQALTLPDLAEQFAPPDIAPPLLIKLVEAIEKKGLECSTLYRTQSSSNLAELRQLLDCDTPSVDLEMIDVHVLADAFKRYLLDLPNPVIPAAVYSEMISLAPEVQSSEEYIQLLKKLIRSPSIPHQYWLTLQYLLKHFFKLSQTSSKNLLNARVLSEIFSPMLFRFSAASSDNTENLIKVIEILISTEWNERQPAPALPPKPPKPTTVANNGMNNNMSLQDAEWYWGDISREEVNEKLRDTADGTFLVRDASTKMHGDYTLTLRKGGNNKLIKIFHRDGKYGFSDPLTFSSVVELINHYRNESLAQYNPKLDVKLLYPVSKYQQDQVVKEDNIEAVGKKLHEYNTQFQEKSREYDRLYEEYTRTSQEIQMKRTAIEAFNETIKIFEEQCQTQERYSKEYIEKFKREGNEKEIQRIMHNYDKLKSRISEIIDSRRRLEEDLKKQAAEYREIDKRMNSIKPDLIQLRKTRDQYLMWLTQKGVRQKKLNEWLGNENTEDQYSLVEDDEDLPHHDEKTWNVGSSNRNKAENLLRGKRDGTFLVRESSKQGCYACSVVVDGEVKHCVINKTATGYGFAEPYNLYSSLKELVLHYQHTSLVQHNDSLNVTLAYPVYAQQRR

COc1ccc(S(=O)(=O)c2nc3ccccc3nc2N2CCN(S(C)(=O)=O)CC2)cc1 [Compound 41, 2-(4-(Methylsulfonyl)piperazin-1-yl)-3-(4-methoxyphenylfsulfonyl)quinoxaline]
IC50 (PC3): 2210 nM | IC50 (A549): 1320 nM | IC50 (HCT116): 550 nM | Binding efficiency index (BEI) (recombinant human PI3Kα; BEI = pIC50 (M)/MW (kDa), PI3Kα): 16.5 | IC50 (recombinant human PI3Kα; FP assay, 50 µM ATP, mean of at least two determinations): 24 nM | percent of apoptotic PC3 cells (PC3 cells [1]; 5 µM): 4.48% | percent of apoptotic PC3 cells (PC3 cells [1]; 10 µM): 32.83% | percent of cells in G1 (PC3 cells [2]; 2 µM): 53.77% | percent of cells in G2 (PC3 cells [2]; 2 µM): 16.76% | percent of cells in S (PC3 cells [2]; 2 µM): 29.48% | percent of cells in G1 (PC3 cells [2]; 4 µM): 54.38% | percent of cells in G2 (PC3 cells [2]; 4 µM): 15.87% | percent of cells in S (PC3 cells [2]; 4 µM): 29.75% | cell cycle arrest (PC3 cells [2]): showed similar trend while the percent of cell in G1 phase was smaller | melting point: 177 to 179 °C

CS(=O)(=O)N1CCN(Cc2cc3nc(-c4cccc5[nH]ncc45)nc(N4CCOCC4)c3s2)CC1 [GDC0941, 2-(1H-Indazol-4-yl)-6-(4-methanesulfonyl-piperazin-1-ylmethyl)-4-morpholin-4-yl-thieno[3,2-d]pyrimidine, reference compound]
percent of apoptotic PC3 cells (PC3 cells [1]; 5 µM): 3.12% | percent of apoptotic PC3 cells (PC3 cells [1]; 10 µM): 5.65% | percent of cells in G1 (PC3 cells [2]; 2 µM): 63.66% | percent of cells in G2 (PC3 cells [2]; 2 µM): 21.86% | percent of cells in S (PC3 cells [2]; 2 µM): 14.48% | percent of cells in G1 (PC3 cells [2]; 4 µM): 71.43% | percent of cells in G2 (PC3 cells [2]; 4 µM): 19.92% | percent of cells in S (PC3 cells [2]; 4 µM): 8.65% | cell cycle arrest (PC3 cells [2]): induced cell cycle arrest in G1 phase
